Key:
human NLRP3 [1] = target: T1, human NLRP3 (Homo sapiens, UniProt Q96P20); test: Human PBMC NLRP3 Assay (LPS priming, ATP stimulation, cytokine measurement); assay type: cell-based; design: host or cells: human PBMCs (A2); human whole blood from healthy volunteers (A3); settings: human PBMC, LPS + ATP
Protocol: Reagents: Human PBMCs (Normal): iXCells Cat #10HU-003; RPMI 1640 medium with GlutaMAX: ThermoFisher Cat #61870127 (Complete Media: 4.5 g/L D-glucose, 10% FBS, 100 mM NaPyr, 1% Pen/Strep, 10 mM HEPES and 0.05 mM of ®-mercaptoethanol; Assay Media: 4.5 g/L D-glucose, 100 mM NaPyr, 1% Pen/Strep, 10 mM HEPES and 0.05 mM of mercaptoethanol; 96-well V-bottom Plates: Costar Cat #3894; LPS (E. coli O26:B6): Sigma Cat #L2654, stock 5 mg/mL in PBS; ATP: Sigma Cat #A6419, prepared in a 250 mM stock in 1 M HEPES (adjusted to pH 7.4).
Cryopreserved PBMCs were rapidly thawed in a 37° C. water bath for 2 min. Cells were then centrifuged at 1200 RPM for 5 min and resuspended in ˜50 mL of fresh RPMI 1640 Complete Medium. A count was undertaken using a hemocytometer and adjusted to 2.5×10^5 cells/mL. V-shaped 96-well plates were seeded with 200 μL of PBMCs (5×10^4) per well and subsequently incubated overnight at 37° C. with 5% CO2. Assay Media was then prepared containing 100 ng/ml of LPS. PBMCs were then centrifuged at 1,200 RPM for 5 min, serum containing media was aspirated, and 150 μL/well of Assay Media+LPS was immediately added. Assay Media without LPS was added in the untreated control wells. Cells were then primed with LPS for 4 h at 37° C. with 5% CO2. A concentration response curve (CRC) was prepared of 1000× test compound in 100% DMSO. The CRC was then diluted 1:50 in Assay Media and then further diluted by 1:5× in Assay Media resulting in a final 4×CRC in 0.4% DMSO/Assay Media. 50 μL/well of 4× test compound CRC or vehicle (0.4% DMSO/Assay Media) was then transferred into each well and subsequently incubated for 30 min at 37° C. with 5% CO2. Cells were stimulated by adding 4 μL of 250 mM ATP, using a 250 mM stock prepared in 1 M Hepes without further dilution (for a final concentration of 5 mM), for 1 h at 37° C. with 5% CO2 Plates were then centrifuged at 1200 RPM for 5 min; and 50 μl of the media was transferred to a clean 96-well storage plate for cytokine measurements using the mesoscale platform, and stored at −80° C. until analyzed. Compounds were added 30 minutes before priming the cells with LPS when TNFα was required to be quantified in the cytokine panel to confirm selectivity.
PBMC NLRP3 IC50 assay results, as a measurement of cellular potency, are provided in Table B. “A” activity=<0.01 uM; “B” activity=0.01-0.1 uM; “C” activity=>0.1-0.5 uM; “D” activity=>0.5 uM.

human NLRP3 [2] = target: T1, human NLRP3; test: Scintillation Proximity (SPA) NLRP3 Assay, displacement of 3H-MCC950; assay type: binding; settings: Table B, activity class; displacement of 3H-MCC950 from human NLRP3
Method in brief: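 Displacement of radioligand 3H-MCC950 (125 nM final) from 350 nM human NLRP3, read by scintillation proximity after 6 h equilibration with PVT beads. Buffer: 20 mM HEPES pH 7.5, 150 mM NaCl, 5 mM MgCl2, 100 μM ADP; compound preincubated 15 min, ligand 60 min, RT. IC50 from specific binding.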

T1 sequence (Q96P20 whole entry): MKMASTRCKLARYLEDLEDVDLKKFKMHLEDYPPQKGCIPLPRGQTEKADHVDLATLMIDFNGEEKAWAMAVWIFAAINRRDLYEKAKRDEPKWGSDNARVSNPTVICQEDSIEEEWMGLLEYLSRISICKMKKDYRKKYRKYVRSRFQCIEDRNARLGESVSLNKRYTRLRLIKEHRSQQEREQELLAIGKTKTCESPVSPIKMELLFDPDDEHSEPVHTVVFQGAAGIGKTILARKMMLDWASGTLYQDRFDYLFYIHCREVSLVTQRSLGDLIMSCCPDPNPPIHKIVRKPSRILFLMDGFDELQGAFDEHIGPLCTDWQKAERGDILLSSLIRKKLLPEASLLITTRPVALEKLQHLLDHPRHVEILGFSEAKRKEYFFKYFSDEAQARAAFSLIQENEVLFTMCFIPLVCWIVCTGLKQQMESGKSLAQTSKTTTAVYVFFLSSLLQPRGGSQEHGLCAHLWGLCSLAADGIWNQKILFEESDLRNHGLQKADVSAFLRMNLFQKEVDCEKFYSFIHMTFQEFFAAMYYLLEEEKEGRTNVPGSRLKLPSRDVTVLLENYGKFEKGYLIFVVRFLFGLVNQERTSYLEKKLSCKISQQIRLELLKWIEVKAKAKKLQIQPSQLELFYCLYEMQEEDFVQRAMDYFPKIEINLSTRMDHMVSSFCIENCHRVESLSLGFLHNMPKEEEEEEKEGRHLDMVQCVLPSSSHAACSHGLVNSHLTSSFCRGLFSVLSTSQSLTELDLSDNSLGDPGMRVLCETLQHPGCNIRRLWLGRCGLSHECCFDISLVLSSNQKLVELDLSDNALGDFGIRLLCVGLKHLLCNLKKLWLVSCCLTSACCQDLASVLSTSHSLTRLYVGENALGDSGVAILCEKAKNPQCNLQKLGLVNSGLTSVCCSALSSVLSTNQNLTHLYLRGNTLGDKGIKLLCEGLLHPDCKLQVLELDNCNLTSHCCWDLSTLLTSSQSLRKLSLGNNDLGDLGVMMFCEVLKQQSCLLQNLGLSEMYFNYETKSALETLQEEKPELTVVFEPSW

Row | Compound | IC50 (human NLRP3 [2]) [µM] | also measured
1 | CN(C(=O)N[C@H]1CCCN(c2ccccc2)C1)c1ccc(Cl)cc1 [Comparative Example D2, (S)-1-(4-chlorophenyl)-1-methyl-3-(1-phenylpiperidin-3-yl)urea, reference compound] | – | IC50 (human NLRP3 [1]; Table C): > 100 µM
2 | CN(C(=O)N[C@@H]1CCCN(c2nnn[nH]2)C1)c1ccc(Cl)cc1F [Compound 66, (R)-3-(1-(1H-tetrazol-5-yl)piperidin-3-yl)-1-(4-chloro-2-fluorophenyl)-1-methylurea] | – | IC50 (human NLRP3 [1]; Table B, activity class): > 0.5 µM; IC50 (human NLRP3 [1]; Table C): 0.892 µM
3 | O=C(N[C@@H]1CCCN(c2ccccc2)C1)c1ccc(Cl)cc1 [Comparative Example J1, (R)-4-chloro-N-(1-phenylpiperidin-3-yl)benzamide, reference compound] | – | IC50 (human NLRP3 [1]; Table C): > 100 µM
4 | CN(C(=O)N(C)[C@@H]1CCCN(c2nnn[nH]2)C1)c1ccc(Cl)cc1 [Comparative Example C2, (R)-1-(1-(1H-tetrazol-5-yl)piperidin-3-yl)-3-(4-chlorophenyl)-1,3-dimethylurea, reference compound] | – | IC50 (human NLRP3 [1]; Table C): 58.1 µM
5 | C[C@H]1C[C@@H](NC(=O)N(C)c2ccc(C3CC3)c(F)c2)[C@@H]2CC[C@H]1N2c1nnn[nH]1 (single isomer, unassigned) [54C*] | > 100 | –
6 | C[C@@H]1C[C@H](NC(=O)N(C)c2c(F)cc(OC(F)(F)F)cc2F)[C@H]2CC[C@@H]1N2c1nnn[nH]1 (single isomer, unassigned) [62B*] | > 100 | –
7 | C[C@@H]1CCN(c2nnn[nH]2)C[C@@H](NC(=O)N(C)c2ccc(OC(F)F)c(F)c2F)C1 (single isomer, unassigned) [40B*] | 1 to 10 | –
8 | C[C@H]1CCN(c2nnn[nH]2)C[C@@H](NC(=O)N(CC2CC2)c2ccc(OC(F)(F)F)cc2)C1 (single isomer, unassigned) [44D*] | 1 to 10 | –
9 | C[C@@H]1C[C@H](NC(=O)N(C)c2c(F)cc(C3CC3)cc2F)[C@H]2CC[C@@H]1N2c1nnn[nH]1 (single isomer, unassigned) [60B*] | > 100 | –
10 | C[C@@H]1CCN(c2nnn[nH]2)C[C@@H](NC(=O)N(CC2CC2)c2ccc(OC(F)(F)F)cc2)C1 (single isomer, unassigned) [44B*] | 1 to 10 | –
11 | C[C@H]1CCN(c2nnn[nH]2)C[C@H](NC(=O)N(C)c2ccc(Cl)cc2F)C1 (single isomer, unassigned) [5C*] | 50 to 100 | –
12 | C[C@H]1CCN(c2nnn[nH]2)C[C@@H](NC(=O)N(C)c2ccc(C3CC3)cc2)C1 (single isomer, unassigned) [8D*] | 1 to 10 | –
13 | C[C@H]1C[C@@H](NC(=O)N(C)c2ccc(OC(F)(F)F)c(F)c2F)[C@@H]2CC[C@H]1N2c1nnn[nH]1 (single isomer, unassigned) [59C*] | > 100 | –
14 | C[C@@H]1C[C@H](NC(=O)N(C)c2ccc(OC(F)F)c(OC(F)F)c2)[C@H]2CC[C@@H]1N2c1nnn[nH]1 (single isomer, unassigned) [64B*] | > 100 | –
15 | C[C@H]1CCN(c2nnn[nH]2)C[C@@H](NC(=O)N(C)c2ccc(C3CC3)c(F)c2)C1 (single isomer, unassigned) [23D*] | 1 to 10 | –
16 | C[C@H]1C[C@H](NC(=O)N(C)c2ccc(C3CC3)c(F)c2)[C@@H]2CC[C@H]1N2c1nnn[nH]1 (single isomer, unassigned) [54D*] | 10 to 50 | –
17 | C[C@H]1CCN(c2nnn[nH]2)C[C@H](NC(=O)N(C)c2cnc(C(F)(F)F)cn2)C1 (single isomer, unassigned) [32C*] | 50 to 100 | –
18 | C[C@H]1C[C@@H](NC(=O)N(C)c2ccc(OC(F)F)c(OC(F)F)c2)[C@@H]2CC[C@H]1N2c1nnn[nH]1 (single isomer, unassigned) [64C*] | > 100 | –
19 | C[C@H]1C[C@@H](NC(=O)N(C)c2ccc3nccn3c2)CN(c2nnn[nH]2)C1 [Compound 37A, 1-(imidazo[1,2-a]pyridin-6-yl)-1-methyl-3-((3R,5S)-5-methyl-1-(1H-tetrazol-5-yl)piperidin-3-yl)urea] | > 100 | –
20 | C[C@H]1C[C@H](NC(=O)N(C)c2ccc(OC(F)(F)F)cc2F)[C@@H]2CC[C@H]1N2c1nnn[nH]1 (single isomer, unassigned) [56D*] | 1 to 10 | –
21 | C[C@H]1CCN(c2nnn[nH]2)C[C@H](NC(=O)N(C)c2ccc(C(F)(F)F)nn2)C1 (single isomer, unassigned) [33C*] | 50 to 100 | –
22 | C[C@H]1CCN(c2nnn[nH]2)C[C@H](NC(=O)N(C)c2c(F)cc(OC(F)(F)F)cc2F)C1 (single isomer, unassigned) [41C*] | 50 to 100 | –
23 | C[C@H]1CCN(c2nnn[nH]2)C[C@@H](NC(=O)N(C)c2ccc(C(F)(F)F)cc2F)C1 (single isomer, unassigned) [13D*] | 1 to 10 | –
24 | C[C@H]1CCN(c2nnn[nH]2)C[C@@H](NC(=O)N(C)c2ccc(Cl)c(F)c2)C1 (single isomer, unassigned) [12D*] | > 100 | –
25 | C[C@H]1CCN(c2nnn[nH]2)C[C@@H](NC(=O)N(C)c2ccc(OC(F)F)cc2F)C1 (single isomer, unassigned) [17D*] | > 100 | –
26 | C[C@@H]1C[C@H](NC(=O)N(C)c2ccc(OC(F)(F)F)cc2F)[C@H]2CC[C@@H]1N2c1nnn[nH]1 (single isomer, unassigned) [56B*] | > 100 | –
27 | C[C@H]1CCN(c2nnn[nH]2)C[C@@H](NC(=O)N(C)c2ccc(C(F)F)c(F)c2)C1 (single isomer, unassigned) [22D*] | 1 to 10 | –
28 | C[C@@H]1C[C@@H](NC(=O)N(C)c2ccc(Cl)c(F)c2)[C@H]2CC[C@@H]1N2c1nnn[nH]1 (single isomer, unassigned) [50A*] | 1 to 10 | –
29 | C[C@@H]1CCN(c2nnn[nH]2)C[C@@H](NC(=O)N(C)c2ccc(Cl)cc2F)C1 (single isomer, unassigned) [5B*] | 1 to 10 | –

Further lines, with some results ahead:

Row | IC50 (human NLRP3 [2]) [µM] | Compound | also measured
30 | 1 to 10 | C[C@@H]1CCN(c2nnn[nH]2)C[C@@H](NC(=O)N(C)c2ccc(OC(F)F)cc2F)C1 (single isomer, unassigned) [17B*] | –
31 | 1 to 10 | C[C@@H]1CCN(c2nnn[nH]2)C[C@@H](NC(=O)N(C)c2ccc(OC(F)F)c(F)c2)C1 (single isomer, unassigned) [15B*] | –
32 | 10 to 50 | CCN(C(=O)N[C@@H]1C[C@@H](C)CCN(c2nnn[nH]2)C1)c1ccc(OC(F)(F)F)cc1 (single isomer, unassigned) [43C*] | –
33 | 1 to 10 | C[C@H]1CCN(c2nnn[nH]2)C[C@H](NC(=O)N(C)c2ccc(OC(F)(F)F)c(OC(F)F)c2)C1 (single isomer, unassigned) [25C*] | –
34 | 50 to 100 | C[C@H]1CCN(c2nnn[nH]2)C[C@@H](NC(=O)N(C)c2cnc(C(F)(F)F)cn2)C1 (single isomer, unassigned) [32D*] | –
35 | 1 to 10 | C[C@@H]1CCN(c2nnn[nH]2)C[C@@H](NC(=O)N(C)c2ccc(C3CC3)cc2)C1 (single isomer, unassigned) [8B*] | –
36 | 1 to 10 | C[C@H]1CCN(c2nnn[nH]2)C[C@@H](NC(=O)N(C)c2ccc(OC(F)(F)F)cc2)C1 (single isomer, unassigned) [10D*] | –
37 | 1 to 10 | C[C@@H]1CCN(c2nnn[nH]2)C[C@@H](NC(=O)N(C)c2ccc(OC(F)(F)F)c(OC(F)F)c2)C1 (single isomer, unassigned) [25B*] | –
38 | 1 to 10 | C[C@@H]1CCN(c2nnn[nH]2)C[C@@H](NC(=O)N(C)c2ccc(OC(F)(F)F)c(F)c2F)C1 (single isomer, unassigned) [26B*] | –
39 | 10 to 50 | C[C@H]1CCN(c2nnn[nH]2)C[C@H](NC(=O)Nc2ccc(Cl)cc2F)C1 (single isomer, unassigned) [27C*] | –
40 | 1 to 10 | C[C@@H]1CCN(c2nnn[nH]2)C[C@@H](NC(=O)N(C)c2ccc(Cl)nc2)C1 (single isomer, unassigned) [29B*] | –
41 | 50 to 100 | C[C@H]1C[C@@H](NC(=O)N(C)c2ccc3ocnc3c2)CN(c2nnn[nH]2)C1 [Compound 34A, 1-(benzo[d]oxazol-5-yl)-1-methyl-3-((3R,5S)-5-methyl-1-(1H-tetrazol-5-yl)piperidin-3-yl)urea] | –

From patent publication US20260008768A1, “UREA DERIVATIVES FOR INHIBITING NLRP3 AND USES THEREOF” (VENTUS THERAPEUTICS U.S., INC., priority 2023, published 2026)
